B1: Alexa 647 conjugated Fasciculin 2 (ligand)
chain: TMCYSHTTTSRAILTNCGENSCYRKSRRHPPKMVLGRGCGCPPGDDNLEVKCCTSPDKCNY
notes: Bought reagent; also called FasII

How the values were obtained:
[1] = target: muscle α1β1γδ nicotinic acetylcholine receptor (expressed in Xenopus oocytes); assay: cell-based or functional assay
α1β1γδ nAChR = α1β1γδ nAChR (Homo sapiens, UniProt P02708+P07510+Q07001); conditions: cited from earlier work
α7nAChR = α7nAChR (Homo sapiens, UniProt P36544); conditions: cited from earlier work
α4β2 nAChR = α4β2 nAChR (Homo sapiens, UniProt P17787+P43681); conditions: cited from earlier work
α3β2 nAChR = α3β2 nAChR (Homo sapiens, UniProt P17787+P32297); conditions: cited from earlier work
[2] = target: T1, zebrafish acetylcholinesterase (synaptic, in muscle) (zebrafish, UniProt Q9DDE3 24-634)
T1 construct: whole, on cells; also called synaptic acetylcholinesterase

Sequence of α1β1γδ nAChR (P11230 24-501): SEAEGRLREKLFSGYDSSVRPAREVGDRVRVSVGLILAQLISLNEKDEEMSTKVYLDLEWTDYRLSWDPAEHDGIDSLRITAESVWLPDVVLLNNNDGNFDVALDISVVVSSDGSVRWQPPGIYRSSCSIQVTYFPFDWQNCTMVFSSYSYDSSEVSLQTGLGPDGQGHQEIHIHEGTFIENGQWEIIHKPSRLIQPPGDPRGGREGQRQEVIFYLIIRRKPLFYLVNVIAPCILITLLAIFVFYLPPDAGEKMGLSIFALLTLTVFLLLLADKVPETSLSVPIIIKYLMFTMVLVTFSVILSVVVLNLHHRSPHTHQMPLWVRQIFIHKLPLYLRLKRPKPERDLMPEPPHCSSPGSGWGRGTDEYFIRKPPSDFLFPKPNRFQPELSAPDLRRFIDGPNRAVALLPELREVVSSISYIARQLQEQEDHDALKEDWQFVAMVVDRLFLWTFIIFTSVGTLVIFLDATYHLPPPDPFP
Sequence of α1β1γδ nAChR (P02708 21-457): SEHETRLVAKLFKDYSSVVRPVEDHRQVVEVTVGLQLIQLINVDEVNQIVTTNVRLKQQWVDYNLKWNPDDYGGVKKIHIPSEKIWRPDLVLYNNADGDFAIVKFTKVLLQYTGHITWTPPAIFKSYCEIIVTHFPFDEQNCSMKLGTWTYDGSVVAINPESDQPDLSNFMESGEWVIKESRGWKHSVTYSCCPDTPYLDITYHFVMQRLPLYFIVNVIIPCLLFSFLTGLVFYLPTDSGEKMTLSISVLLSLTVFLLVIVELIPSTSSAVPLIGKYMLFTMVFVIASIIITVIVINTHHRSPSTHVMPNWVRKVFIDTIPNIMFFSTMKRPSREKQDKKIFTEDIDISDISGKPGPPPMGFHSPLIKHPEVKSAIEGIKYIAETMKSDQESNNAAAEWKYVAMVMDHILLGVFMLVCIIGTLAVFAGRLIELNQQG
Sequence of α1β1γδ nAChR (Q07001 22-517): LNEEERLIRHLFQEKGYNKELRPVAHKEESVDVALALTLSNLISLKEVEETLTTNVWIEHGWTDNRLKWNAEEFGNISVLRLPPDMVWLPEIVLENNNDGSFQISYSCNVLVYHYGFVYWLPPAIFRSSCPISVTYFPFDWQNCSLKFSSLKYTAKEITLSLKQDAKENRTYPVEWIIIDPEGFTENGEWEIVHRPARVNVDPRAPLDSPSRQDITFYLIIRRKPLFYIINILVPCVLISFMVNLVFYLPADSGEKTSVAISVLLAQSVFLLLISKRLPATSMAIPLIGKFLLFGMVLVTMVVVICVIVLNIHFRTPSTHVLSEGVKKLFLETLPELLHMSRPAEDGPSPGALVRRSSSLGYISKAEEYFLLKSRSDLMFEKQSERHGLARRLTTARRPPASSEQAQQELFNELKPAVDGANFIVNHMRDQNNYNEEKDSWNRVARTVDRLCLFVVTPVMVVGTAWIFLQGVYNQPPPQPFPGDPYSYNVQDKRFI
Sequence of α1β1γδ nAChR (P07510 23-517): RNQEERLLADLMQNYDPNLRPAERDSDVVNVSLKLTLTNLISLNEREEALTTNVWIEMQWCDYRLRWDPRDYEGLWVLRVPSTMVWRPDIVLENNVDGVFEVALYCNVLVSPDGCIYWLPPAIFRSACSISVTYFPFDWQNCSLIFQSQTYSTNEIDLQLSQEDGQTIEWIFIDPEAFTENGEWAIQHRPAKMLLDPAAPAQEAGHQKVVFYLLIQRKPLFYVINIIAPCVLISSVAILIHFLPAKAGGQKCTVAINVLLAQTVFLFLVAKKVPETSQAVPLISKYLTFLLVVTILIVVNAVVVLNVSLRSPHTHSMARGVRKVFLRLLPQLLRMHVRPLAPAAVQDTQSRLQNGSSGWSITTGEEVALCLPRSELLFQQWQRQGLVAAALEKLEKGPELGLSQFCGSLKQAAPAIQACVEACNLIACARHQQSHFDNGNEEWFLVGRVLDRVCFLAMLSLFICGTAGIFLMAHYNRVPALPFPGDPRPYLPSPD
Sequence of α7nAChR (P36544 23-502 limits assumed): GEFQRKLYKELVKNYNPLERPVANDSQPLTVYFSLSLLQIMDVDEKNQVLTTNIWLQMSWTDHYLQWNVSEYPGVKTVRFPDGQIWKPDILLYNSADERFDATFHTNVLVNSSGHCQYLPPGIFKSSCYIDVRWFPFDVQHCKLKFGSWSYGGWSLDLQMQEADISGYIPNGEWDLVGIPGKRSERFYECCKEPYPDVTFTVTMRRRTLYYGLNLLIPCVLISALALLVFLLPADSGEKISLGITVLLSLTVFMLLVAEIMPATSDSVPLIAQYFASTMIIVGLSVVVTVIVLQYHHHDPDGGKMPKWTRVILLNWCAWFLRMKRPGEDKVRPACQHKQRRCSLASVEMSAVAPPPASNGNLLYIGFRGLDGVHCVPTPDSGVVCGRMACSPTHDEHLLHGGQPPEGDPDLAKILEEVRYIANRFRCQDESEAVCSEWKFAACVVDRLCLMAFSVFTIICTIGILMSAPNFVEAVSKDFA
Sequence of α4β2 nAChR (P43681 29-627): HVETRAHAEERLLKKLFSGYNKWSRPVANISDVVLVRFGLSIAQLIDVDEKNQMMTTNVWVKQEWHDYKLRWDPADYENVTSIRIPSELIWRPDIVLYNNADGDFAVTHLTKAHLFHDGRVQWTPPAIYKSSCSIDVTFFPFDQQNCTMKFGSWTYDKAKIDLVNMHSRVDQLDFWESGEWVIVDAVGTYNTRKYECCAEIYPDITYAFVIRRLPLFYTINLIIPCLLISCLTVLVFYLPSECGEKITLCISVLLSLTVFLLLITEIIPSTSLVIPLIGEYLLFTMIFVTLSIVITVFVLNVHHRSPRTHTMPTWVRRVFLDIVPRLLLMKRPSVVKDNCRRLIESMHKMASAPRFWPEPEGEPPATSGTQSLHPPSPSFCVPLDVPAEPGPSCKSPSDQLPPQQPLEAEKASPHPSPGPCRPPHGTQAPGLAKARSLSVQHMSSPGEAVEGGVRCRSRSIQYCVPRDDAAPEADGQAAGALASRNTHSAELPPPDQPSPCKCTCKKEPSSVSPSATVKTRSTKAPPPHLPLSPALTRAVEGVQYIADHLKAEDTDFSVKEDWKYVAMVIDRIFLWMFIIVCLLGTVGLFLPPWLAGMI
Sequence of α4β2 nAChR (P17787 26-502): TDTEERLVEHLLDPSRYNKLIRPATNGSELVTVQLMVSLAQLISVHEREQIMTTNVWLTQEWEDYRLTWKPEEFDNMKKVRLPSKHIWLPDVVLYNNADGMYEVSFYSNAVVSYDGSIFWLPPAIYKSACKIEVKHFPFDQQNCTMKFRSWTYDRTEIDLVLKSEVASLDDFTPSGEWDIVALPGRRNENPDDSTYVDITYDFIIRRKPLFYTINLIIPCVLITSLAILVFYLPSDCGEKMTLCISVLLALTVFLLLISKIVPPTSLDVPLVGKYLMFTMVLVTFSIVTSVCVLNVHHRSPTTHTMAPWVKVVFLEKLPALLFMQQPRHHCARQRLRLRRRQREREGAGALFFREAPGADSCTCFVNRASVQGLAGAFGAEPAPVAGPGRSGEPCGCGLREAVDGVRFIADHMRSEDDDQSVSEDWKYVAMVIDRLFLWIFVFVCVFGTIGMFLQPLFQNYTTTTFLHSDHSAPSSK
Sequence of α3β2 nAChR (P32297 32-505 limits assumed): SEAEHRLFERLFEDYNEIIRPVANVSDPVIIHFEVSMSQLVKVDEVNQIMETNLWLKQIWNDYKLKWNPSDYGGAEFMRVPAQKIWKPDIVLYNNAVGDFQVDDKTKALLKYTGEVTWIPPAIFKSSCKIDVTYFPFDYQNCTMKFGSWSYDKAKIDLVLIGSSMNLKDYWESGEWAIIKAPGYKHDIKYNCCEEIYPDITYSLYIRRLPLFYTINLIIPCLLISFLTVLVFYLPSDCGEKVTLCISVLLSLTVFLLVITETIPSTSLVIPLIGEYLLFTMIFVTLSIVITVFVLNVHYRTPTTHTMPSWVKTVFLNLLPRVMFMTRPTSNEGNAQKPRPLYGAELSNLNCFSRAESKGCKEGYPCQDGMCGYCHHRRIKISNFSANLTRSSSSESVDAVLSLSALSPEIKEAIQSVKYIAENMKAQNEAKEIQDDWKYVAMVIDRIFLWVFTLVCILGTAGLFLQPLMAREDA
Sequence of α3β2 nAChR (P17787 26-502 limits assumed): as the sequence (P17787 26-502) above

Molecule	Affinity (α1β1γδ nAChR)	Affinity (α7nAChR)	Affinity (α4β2 nAChR)	further results
tethered α-bungarotoxin	–	–	–	average peak ACh current, Xenopus oocytes (receptor alone: 8.46 +/-3.7 µA) [1]: 0 µA
α-bungarotoxin	0.4 nM	0.95 nM	100 µM	–
α-conotoxin MII	–	–	–	Affinity (α3β2 nAChR): 0.5 nM
κ-bungartotoxin	1000 nM	1 to 12 nM	>0.1 µM	–
B1	–	–	–	binding result [2]: binds
